From ChEMBL document CHEMBL1800005, “Synthesis and biological activity of a series of tetrasubstituted-imidazoles as P2X(7) antagonists” (Bioorg Med Chem Lett, 2010)
≈ marks a conversion by molar mass, not a printed value.

What was measured:
P2X purinoceptor 7 [1] = molecular target: T1, P2X purinoceptor 7 (Rattus norvegicus, UniProt Q64663); test: Antagonist activity at rat recombinant P2X7 receptor expressed in HEK293 cells by ethidium bromide […] assay; format: functional, cell-based
T1 sequence (Q64663 whole entry): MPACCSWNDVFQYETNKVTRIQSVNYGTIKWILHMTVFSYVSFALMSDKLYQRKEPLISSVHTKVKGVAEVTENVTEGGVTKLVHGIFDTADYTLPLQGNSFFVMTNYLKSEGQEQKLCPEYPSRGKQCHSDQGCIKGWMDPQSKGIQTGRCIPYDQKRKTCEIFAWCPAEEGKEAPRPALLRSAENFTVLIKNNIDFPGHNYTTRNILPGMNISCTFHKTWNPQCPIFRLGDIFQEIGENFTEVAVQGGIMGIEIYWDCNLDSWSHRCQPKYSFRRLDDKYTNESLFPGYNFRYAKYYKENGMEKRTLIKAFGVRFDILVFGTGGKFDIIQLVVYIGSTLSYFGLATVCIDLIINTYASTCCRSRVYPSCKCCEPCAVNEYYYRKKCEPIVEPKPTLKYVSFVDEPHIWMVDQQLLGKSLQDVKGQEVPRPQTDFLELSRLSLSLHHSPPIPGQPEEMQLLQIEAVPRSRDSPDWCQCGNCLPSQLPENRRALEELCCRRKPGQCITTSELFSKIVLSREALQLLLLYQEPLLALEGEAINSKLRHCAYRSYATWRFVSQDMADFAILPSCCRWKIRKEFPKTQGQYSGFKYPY

P2X purinoceptor 7 [2] = molecular target: T2, P2X purinoceptor 7 (Homo sapiens, UniProt Q99572); test: Antagonist activity at human recombinant P2X7 receptor expressed in HEK293 cells by ethidium bromide […] assay; format: functional, cell-based
T2 sequence (Q99572 whole entry): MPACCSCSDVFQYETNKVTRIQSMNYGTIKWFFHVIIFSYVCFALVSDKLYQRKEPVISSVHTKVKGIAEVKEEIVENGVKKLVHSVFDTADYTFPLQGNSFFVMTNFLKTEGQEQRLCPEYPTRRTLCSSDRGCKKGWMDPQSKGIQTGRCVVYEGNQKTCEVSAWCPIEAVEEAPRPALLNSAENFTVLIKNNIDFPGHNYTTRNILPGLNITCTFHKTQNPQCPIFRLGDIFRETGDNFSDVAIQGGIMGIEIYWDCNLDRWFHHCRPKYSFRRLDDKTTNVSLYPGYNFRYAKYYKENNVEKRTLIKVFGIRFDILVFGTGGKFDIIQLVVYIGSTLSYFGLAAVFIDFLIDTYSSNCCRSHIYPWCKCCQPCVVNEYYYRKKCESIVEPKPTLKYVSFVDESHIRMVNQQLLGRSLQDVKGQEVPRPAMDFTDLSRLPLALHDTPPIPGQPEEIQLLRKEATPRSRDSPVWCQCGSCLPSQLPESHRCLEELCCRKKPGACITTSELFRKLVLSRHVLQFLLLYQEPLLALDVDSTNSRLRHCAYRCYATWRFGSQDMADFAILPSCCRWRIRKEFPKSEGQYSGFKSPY

[3] = Solubility of compound in fasted state simulated intestinal fluid at pH 6.5 after 1 hr; format: physicochemical
[4] = Solubility of compound in fed state simulated intestinal fluid at pH 5 after 1 hr; format: physicochemical
[5] = Solubility of compound in simulated gastric fluid at pH 1.2 after 1 hr; format: physicochemical
Cytochrome P450 2D6 = Cytochrome P450 2D6 (Homo sapiens, UniProt P10635); test: Inhibition of CYP2D6; format: ADME
[6] = Dissociation constant, pKa of the compound; format: physicochemical
Cytochrome P450 1A2 = molecular target: T3, Cytochrome P450 1A2 (Homo sapiens, UniProt P05177); test: Inhibition of CYP1A2; format: ADME
T3 sequence (P05177 whole entry): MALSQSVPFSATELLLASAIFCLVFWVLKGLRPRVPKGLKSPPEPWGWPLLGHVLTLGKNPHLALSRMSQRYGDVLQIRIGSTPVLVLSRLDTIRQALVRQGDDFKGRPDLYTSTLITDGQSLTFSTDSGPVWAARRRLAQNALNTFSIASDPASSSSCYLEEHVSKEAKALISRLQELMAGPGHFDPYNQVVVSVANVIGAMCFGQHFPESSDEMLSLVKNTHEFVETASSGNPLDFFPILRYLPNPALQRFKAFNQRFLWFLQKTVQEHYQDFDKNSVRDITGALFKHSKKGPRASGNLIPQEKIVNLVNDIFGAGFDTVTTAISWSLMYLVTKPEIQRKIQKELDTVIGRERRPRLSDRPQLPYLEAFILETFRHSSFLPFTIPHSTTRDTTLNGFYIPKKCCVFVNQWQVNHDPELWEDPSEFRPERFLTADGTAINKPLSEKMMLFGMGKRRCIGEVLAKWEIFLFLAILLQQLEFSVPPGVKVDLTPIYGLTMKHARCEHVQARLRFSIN

Cytochrome P450 2C9 = Cytochrome P450 2C9 (Homo sapiens, UniProt P11712); test: Inhibition of CYP2C9; format: ADME
Cytochrome P450 3A4 = Cytochrome P450 3A4 (Homo sapiens, UniProt P08684); test: Inhibition of CYP3A4 using diethoxyflourescein as a substrate; format: ADME
Albumin = Albumin (Homo sapiens, UniProt P02768); test: Protein binding in human serum albumin; format: ADME; conditions: read-out: PB
Cytochrome P450 2C19 = Cytochrome P450 2C19 (Homo sapiens, UniProt P33261); test: Inhibition of CYP2C19; format: ADME
[7] = Tmax in rat at 3 mg/kg, po; format: ADME, organism-based; set-up: dose 3 mg/kg, route oral; conditions: in vivo
Rattus norvegicus = test: Dose normalized AUC (0 to 6 hrs) in rat at 3 mg/kg, po; format: ADME, organism-based; set-up: dose 3 mg/kg, route oral; conditions: in vivo
[8] = Solubility of the compound in water after 1 hr; format: physicochemical
[9] = Cmax in rat at 3 mg/kg, po; format: ADME, organism-based; set-up: dose 3 mg/kg, route oral; conditions: in vivo

Sequence of Cytochrome P450 2C19 (P33261 whole entry): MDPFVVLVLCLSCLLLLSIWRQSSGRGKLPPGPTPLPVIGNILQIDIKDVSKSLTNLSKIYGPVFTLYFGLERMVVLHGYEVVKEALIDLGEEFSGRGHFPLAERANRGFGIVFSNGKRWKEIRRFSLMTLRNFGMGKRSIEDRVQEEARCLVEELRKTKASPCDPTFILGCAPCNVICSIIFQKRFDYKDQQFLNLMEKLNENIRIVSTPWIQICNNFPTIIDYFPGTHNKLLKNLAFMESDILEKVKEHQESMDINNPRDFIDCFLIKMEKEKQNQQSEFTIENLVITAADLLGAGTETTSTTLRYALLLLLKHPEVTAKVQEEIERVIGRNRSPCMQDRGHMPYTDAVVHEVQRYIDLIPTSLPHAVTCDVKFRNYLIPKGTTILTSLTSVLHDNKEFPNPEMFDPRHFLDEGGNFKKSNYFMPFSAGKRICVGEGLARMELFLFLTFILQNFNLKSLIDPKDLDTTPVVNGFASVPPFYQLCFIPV
Sequence of Cytochrome P450 2D6 (P10635 whole entry): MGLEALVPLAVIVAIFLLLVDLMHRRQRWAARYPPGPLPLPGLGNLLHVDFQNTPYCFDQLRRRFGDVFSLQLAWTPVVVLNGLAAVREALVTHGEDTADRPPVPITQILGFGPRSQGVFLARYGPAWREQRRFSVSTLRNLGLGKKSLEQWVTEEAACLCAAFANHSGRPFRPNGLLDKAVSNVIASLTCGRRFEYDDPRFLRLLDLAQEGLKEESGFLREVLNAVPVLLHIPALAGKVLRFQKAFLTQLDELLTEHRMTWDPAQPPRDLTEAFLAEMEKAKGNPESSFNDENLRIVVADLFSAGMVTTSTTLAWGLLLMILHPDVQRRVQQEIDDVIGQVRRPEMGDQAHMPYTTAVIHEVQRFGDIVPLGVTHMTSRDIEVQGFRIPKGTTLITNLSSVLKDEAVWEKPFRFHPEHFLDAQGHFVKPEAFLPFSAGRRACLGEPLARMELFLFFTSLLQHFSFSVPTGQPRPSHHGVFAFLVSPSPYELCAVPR
Sequence of Cytochrome P450 3A4 (P08684 whole entry): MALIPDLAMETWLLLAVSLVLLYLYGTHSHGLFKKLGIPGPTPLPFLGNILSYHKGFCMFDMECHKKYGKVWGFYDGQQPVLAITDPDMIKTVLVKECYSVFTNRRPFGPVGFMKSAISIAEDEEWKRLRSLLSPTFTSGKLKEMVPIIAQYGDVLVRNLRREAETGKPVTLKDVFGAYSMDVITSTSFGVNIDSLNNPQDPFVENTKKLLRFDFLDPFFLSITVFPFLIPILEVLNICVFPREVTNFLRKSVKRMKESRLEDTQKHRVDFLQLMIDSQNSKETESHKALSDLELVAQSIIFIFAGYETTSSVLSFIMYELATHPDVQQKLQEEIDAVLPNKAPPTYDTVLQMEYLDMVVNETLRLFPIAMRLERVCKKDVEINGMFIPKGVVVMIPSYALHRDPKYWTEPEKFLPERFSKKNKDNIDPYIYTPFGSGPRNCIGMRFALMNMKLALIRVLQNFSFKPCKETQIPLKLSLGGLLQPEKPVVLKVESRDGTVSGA
Sequence of Albumin (P02768 whole entry): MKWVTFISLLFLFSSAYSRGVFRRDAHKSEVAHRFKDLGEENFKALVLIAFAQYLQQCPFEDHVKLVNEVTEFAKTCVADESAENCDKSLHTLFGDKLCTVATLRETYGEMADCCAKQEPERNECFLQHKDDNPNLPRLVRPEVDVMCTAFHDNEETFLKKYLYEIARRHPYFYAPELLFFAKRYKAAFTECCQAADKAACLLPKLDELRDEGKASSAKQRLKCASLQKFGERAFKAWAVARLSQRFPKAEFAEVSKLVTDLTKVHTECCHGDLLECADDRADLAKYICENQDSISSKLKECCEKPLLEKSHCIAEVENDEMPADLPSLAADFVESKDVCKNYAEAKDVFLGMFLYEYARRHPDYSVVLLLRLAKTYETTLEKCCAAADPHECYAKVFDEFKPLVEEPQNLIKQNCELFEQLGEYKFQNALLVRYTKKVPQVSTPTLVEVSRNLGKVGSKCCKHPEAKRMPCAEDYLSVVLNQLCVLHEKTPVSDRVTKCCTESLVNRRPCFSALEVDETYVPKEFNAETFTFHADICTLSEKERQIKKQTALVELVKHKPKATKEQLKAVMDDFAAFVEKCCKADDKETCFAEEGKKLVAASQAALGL
Sequence of Cytochrome P450 2C9 (P11712 whole entry): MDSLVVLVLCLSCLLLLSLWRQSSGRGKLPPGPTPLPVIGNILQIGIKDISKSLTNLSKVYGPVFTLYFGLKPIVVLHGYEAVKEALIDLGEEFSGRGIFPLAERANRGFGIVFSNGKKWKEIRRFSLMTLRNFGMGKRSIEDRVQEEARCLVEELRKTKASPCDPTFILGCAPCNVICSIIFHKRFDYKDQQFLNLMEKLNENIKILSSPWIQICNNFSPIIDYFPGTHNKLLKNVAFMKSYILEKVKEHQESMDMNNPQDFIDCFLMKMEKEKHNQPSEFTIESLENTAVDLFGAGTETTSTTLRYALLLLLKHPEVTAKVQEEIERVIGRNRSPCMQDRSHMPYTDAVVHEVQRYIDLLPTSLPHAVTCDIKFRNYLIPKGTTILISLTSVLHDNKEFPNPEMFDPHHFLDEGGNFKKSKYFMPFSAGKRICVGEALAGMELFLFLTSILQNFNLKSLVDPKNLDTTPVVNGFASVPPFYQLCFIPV

IC50 (P2X purinoceptor 7 [1]) [nM] | IC50 (P2X purinoceptor 7 [2]) [nM] | Structure (SMILES) | other results
251 | 39.8 | Cc1nc(-c2ccccc2)n(C)c1CC(=O)NCc1ccc(F)cc1Cl | –
1580 | 50.1 | Cc1nc(-c2ccccc2)n(C)c1CC(=O)NCc1cccc(Cl)c1C | –
3160 | 50.1 | Cc1cccc(Cl)c1CNC(=O)Cc1c(C)nc(-c2ccccc2)n1C | –
> 10000 | 63.1 | Cc1nc(-c2ccc(F)cc2F)n(C)c1CC(=O)NCc1ccc(F)c(F)c1F | –
1000 | 126 | CCn1c(-c2ccc(F)cc2F)nc(C)c1CC(=O)NCc1ccc(F)c(F)c1F | –
251 | 200 | Cn1c(CC(=O)NCc2ccc(F)cc2Cl)cnc1-c1ccc(F)cc1F | –

The next lines start with the compound.

Structure (SMILES) | IC50 (P2X purinoceptor 7 [1]) [nM] | IC50 (P2X purinoceptor 7 [2]) [nM] | other results
Cc1nn(-c2ccccc2)c(C)c1CC(=O)NCc1ccc(F)cc1Cl | – | – | solubility at 1 h [3]: 120 µg/mL (≈ 323 µM); solubility at 1 h [4]: 100 µg/mL (≈ 269 µM); solubility at 1 h [5]: 410 µg/mL (≈ 1100 µM)
Cc1nc(-c2ccc(F)cc2F)n(C)c1CC(=O)NCc1ccc(F)cc1Cl [listing 1 of 2 here] | – | – | IC50 (Cytochrome P450 2D6): > 10000 nM; pKa [6]: 6.47; IC50 (Cytochrome P450 1A2): > 10000 nM; IC50 (Cytochrome P450 2C9): > 10000 nM; IC50 (Cytochrome P450 3A4): 5500 nM; fraction unbound (Albumin): 0.09; IC50 (Cytochrome P450 2C19): > 10000 nM
CCn1c(-c2ccccc2)nc(C)c1CC(=O)NCc1ccc(F)cc1Cl | 158 | 100 | –
CCn1c(-c2ccccc2)nc(C)c1CC(=O)NCc1cccc(Cl)c1C | 631 | 50.1 | –
CCn1c(-c2ccccc2)nc(C)c1CC(=O)NCc1c(C)cccc1Cl | 501 | 50.1 | –
Cc1nc(-c2ccccc2)n(C)c1CC(=O)NCc1ccc(F)c(F)c1F | 5010 | 100 | –
CCn1c(-c2ccccc2)nc(C)c1CC(=O)NCc1ccc(F)c(F)c1F | 3980 | 158 | –
Cc1nc(-c2ccc(F)cc2F)n(C)c1CC(=O)NCc1ccc(F)cc1Cl [listing 2 of 2 here] | 316 | 39.8 | solubility at 1 h [3]: 370 µg/mL (≈ 907 µM); solubility at 1 h [4]: 900 µg/mL (≈ 2210 µM); Tmax [7]: 30 min; AUC/dose (Rattus norvegicus): 6.8 kg·min/L; solubility at 1 h [8]: 920 µg/mL (≈ 2260 µM); Cmax [9]: 430 nM; solubility at 1 h [5]: > 1000 µg/mL
CCn1c(-c2ccc(F)cc2F)nc(C)c1CC(=O)NCc1ccc(F)cc1Cl | 158 | 100 | –
Cc1nc(-c2ccc(F)cc2F)n(C)c1CC(=O)NCc1cccc(Cl)c1C | 631 | 31.6 | –
CCn1c(-c2ccc(F)cc2F)nc(C)c1CC(=O)NCc1cccc(Cl)c1C | 398 | 39.8 | –
CCn1c(-c2ccc(F)cc2F)nc(C)c1CC(=O)NCc1c(C)cccc1Cl | 631 | 50.1 | –
CCn1c(CC(=O)NCc2ccc(F)cc2Cl)cnc1-c1ccc(F)cc1F | 398 | 501 | –
Cc1c(Cl)cccc1CNC(=O)Cc1cnc(-c2ccc(F)cc2F)n1C | 631 | 63.1 | –
